In PubChem BioAssay (NCI) one finds TGI and GI50 data, which are given here for 12 compounds.

Common to all, as to assay: NCI anticancer screen, dose series, 48 h
The test system of experiment [1] is UACC-257 melanoma.
For experiment [2], the system named is SNB-75 CNS.
In experiment [3] the test system is HT29 colon.
The test system of experiment [4] is HCT-116 colon.
Experiment [5] relates to SF-295 CNS.
For experiment [6], the system named is HS 578T breast.
Experiment [7] deals with M14 melanoma.
In experiment [8] the test system is LOX IMVI melanoma.
Experiment [9] has as its system SNB-78 CNS.
Experiment [10] relates to DMS 114 small cell lung.

Several values for one entry are separate records, joined by “and”; a condition that tells them apart may be missing. Identical values can stand only once.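 Five concentrations, 48 hours, 96-well plates. GI50 is the concentration that inhibits growth by half. At the TGI there is no net growth.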

Regarding `O=S(=O)(O)C(c1ccccc1)C(O)c1ccccc1` (stereo not drawn), the TGI in experiment [1], in experiment [2], in experiment [3], in experiment [4], in experiment [5] and in [6] was more than 100 µM each time. Besides, the TGI in experiment [7] and in experiment [8] was more than 100 µM in each case.

As to `CC(=O)O[C@H]([C@H](OC(C)=O)[C@H](C)OC(C)=O)[C@@H](/C=C/[C@H]1CC=CC(=O)O1)OC(C)=O`, the GI50 is more than 100 µM in [1]; 22.2 µM in experiment [2]; 55.8 µM in experiment [3]; 33 µM in experiment [4]; 20.6 µM in [5]; 65.5 µM in experiment [6]. The results for the GI50 in experiment [7] and in [8] were 67.3 µM and 55.1 µM, respectively. Besides, the TGI in experiment [1] was more than 100 µM; in [2] it was 61.7 µM; in [3], more than 100 µM; in experiment [4] it was more than 100 µM; in [5], 59.8 µM; in experiment [6] it was more than 100 µM. In addition, the TGI in [7] and in experiment [8] was more than 100 µM each time.

`O=C1C[C@@H]2OCC=C3C[N+]4([O-])CC[C@]56c7ccccc7N1[C@H]5[C@H]2[C@H]3C[C@@H]64` (stereo partly drawn): the GI50 in [1], in experiment [2], in [3], in [4], in experiment [5] and in experiment [6] was more than 100 µM in each case. Besides, the GI50 in experiment [7] and in experiment [8] was more than 100 µM in each case. The TGI in [1], in [2], in [3], in [4], in experiment [5] and in [6] was more than 100 µM in each case. Moreover, the TGI in experiment [7] and in experiment [8] was more than 100 µM throughout.

As to `CC(C)(C)C1CC[C@H]2c3c([nH]c4ccccc34)[C@H]3C(=O)N(c4ccc(F)cc4)C(=O)[C@H]3[C@H]2C1` (stereo partly drawn), the TGI in [1] was 54.2 µM; in experiment [2], 23 µM; in [9] it was 36.8 µM; in [4], 25 µM; in [5], 28.3 µM; in [7] it was 38.4 µM. For the same compound, the TGI in experiment [8] worked out at 35.2 µM; in experiment [10] it was 38 µM.

With `CC1(C)CC2=NO[Se]3=C2C(=NO3)C1`, the TGI in experiment [1] was 5.64 µM; in [2] it was 6.96 µM; in experiment [3], 10.1 µM; in experiment [4] it was 10.4 µM; in experiment [5] it was 7.6 µM; in experiment [6] it was 33.1 µM. The figures for the TGI in experiment [7] and in [8] were 6.25 µM and 9.39 µM, respectively.

Consider `CC(=O)NC(CCCNC(=O)OCc1ccccc1)C(=O)NCc1ccccc1` (stereo not drawn), for which the TGI in experiment [1], in experiment [2], in experiment [3], in experiment [4], in experiment [5] and in [7] was more than 100 µM in each case. Moreover, the TGI in experiment [8] and in experiment [10] was more than 100 µM each time.

For `CN1S(=O)(=O)N(C)P12(N=P(CP(=NP13(N(C)S(=O)(=O)N1C)N(C)S(=O)(=O)N3C)(c1ccccc1)c1ccccc1)(c1ccccc1)c1ccccc1)N(C)S(=O)(=O)N2C`, the TGI in experiment [1], in [2], in experiment [3], in experiment [9], in experiment [4] and in experiment [7] was more than 100 µM each time. Moreover, the TGI in experiment [8] and in experiment [10] was more than 100 µM each time.

For the compound `NS(=O)(=O)c1cc2c(cc1Cl)NCNS2(=O)=O`, the TGI in [1], in [2], in [3], in experiment [4], in experiment [5] and in experiment [6] was more than 100 µM in each case. Further, the TGI in experiment [7] and in [8] was more than 100 µM in each case.

Consider `COc1ccc(C(C)Nc2cc(OC)c(OC)c(OC)c2)cc1` (stereo not drawn), for which the TGI in experiment [1] was more than 100 µM; in experiment [2], more than 100 µM; in experiment [3], more than 100 µM; in experiment [9] it was 17.6 µM; in [4] it was more than 46.2 µM; in [5], 7.53 µM. Also, the TGI in experiment [7] was more than 100 µM; in [8], more than 92.6 µM.

`O=C(CCN1CCOCC1)Nc1ccc(Cn2nnc3c2C(=O)c2nnn(Cc4ccc(NC(=O)CCN5CCOCC5)cc4)c2C3=O)cc1`: the GI50 in [1] is 1.64 µM; in experiment [2], 1.93 µM; in experiment [3] it was 1.24 µM; in experiment [4] it was 0.384 µM; in [5], more than 25.7 µM; in [6], 3.03 µM. For the same compound, the GI50 in experiment [7] was 6.74 µM; in experiment [8], 0.678 µM. Moreover, the TGI in experiment [1] was 3.57 µM; in experiment [2] it was 3.6 µM; in experiment [3], more than 100 µM; in experiment [4], more than 100 µM; in [5], more than 100 µM; in [6], 24.9 µM. In addition, the TGI in [7] is more than 23.1 µM; in [8] it was 3.37 µM.

Regarding `Cc1cccc(Oc2ccc(Nc3ncnc4ccc(NC(=O)CN(C)C)cc34)cc2Cl)c1`, the GI50 in experiment [1] is 1.71 µM; in experiment [2], 2.01 µM; in experiment [3], 1.76 µM; in experiment [4], 1.61 µM; in experiment [5], 1.66 µM; in [6], 1.81 µM. Moreover, the GI50 in [7] was 1.71 µM; in [8], 1.53 µM. The TGI was 3.3 µM in [1]; 5.05 µM in experiment [2]; 3.77 µM in experiment [3]; 3.09 µM in experiment [4]; 3.2 µM in [5]; 4.33 µM in [6]. For the same compound, the figures for the TGI in experiment [7] and in [8] were 3.5 µM and 2.86 µM, respectively.

Take `N=C(N)SCc1ccc(Cl)c2ccccc12` (tested in a mixture with another compound): the TGI in experiment [1] was 13.8 µM and 12.9 µM; in [2], 23.1 µM and 19.2 µM; in experiment [3] it was 24.2 µM and 26.4 µM; in experiment [4] it was 24.5 µM and 28.2 µM; in experiment [5] it was 24.9 µM and 23.7 µM; in experiment [6] it was 48.1 µM and 53 µM. The TGI was 23.8 µM and 26.5 µM in experiment [7]; 33.1 µM and 36.6 µM in [8].
